This is an account of results in patent US10065928B2, “Quinolinone compound and use thereof” (Sunshine Lake Pharma Co., Ltd., priority 2014, dated 2018).

Data set [1] deals with erythropoietin (EPO) production in Hep3B cells. The data set can be described thus: Activity in inducing erythropoietin (EPO) production in vitro, Hep3B cells, EPO ELISA. In kind it is cell-based. To be noted: Homo sapiens, 24 h, EPO in supernatant by ELISA. The protocol:
The activities of compounds of the invention in inducing erythropoietin (EPO) production were assessed by using human live cancer cell strain Hep3B (ATCC: American type culture collection, Manassas, Va.). Hep3B cells seeded in a 96-well plate with a density of 2.5×10^4 cells/well were cultivated overnight in DMEM culture medium (Dulbecco's Modified Eagle's Medium) at 37° C. in the presence of 10% fetal bovine serum (FBS). The next day, the supernatant liquid of culture medium was abandoned by suction, and to the residue was added fresh DMEM (containing 0.5% DMSO, 0.5% FBS) containing compound of the invention with a series of concentrations (0.31160.00 μM) or containing solvent used for comparison. The cells were cultivated at 37° C. for 24 h. The supernatant liquid was collected and the EPO concentration of the supernatant was quantified by using human EPO ELISA kit (Abcam). The activity of each compound in inducing erythropoietin (EPO) production was represented by half maximal effective concentration (EC50).
(An ELISA detects its analyte on a solid surface through an enzyme-linked reagent.)

The nature of data set [2]: Pharmacokinetic assay in male SD rats (iv and oral). In kind it is in vivo. To be noted: for F: po 5 mg/kg vs iv 1 mg/kg; for AUC(0-t) / Cmax / Tmax / clearance / half-life / Vd: rat, plasma; for Vd: read-out: Vss. The protocol:
Preparation of test compound solutions: the test compound solution was prepared for oral and intravenous administration by using 5% DMSO, 5% Solutol HS 15 and 90% normal saline.
Male SD rats weighing 190-250 g were randomly divided into two groups, and each group had three rats; one group was administered with test compound at a dose of 1.0 mg/kg by intravenous injection, the other group was administered with test compound at a dose of 5.0 mg/kg by oral. After administering, blood samples were collected at time points of 0.0833, 0.25, 0.5, 1.0, 2.0, 4.0, 7.0 and 24 h. Standard curve was plotted based on concentrations of the samples in a suitable range, and the concentrations of test compounds in plasma samples were determined by using AB SCIEX API4000 LC-MS/MS in MRM mode. Pharmacokinetic parameters were calculated according to drug concentration−time curve using a noncompartmental method with WinNonLin 6.3 software.

Usually EC50 stands for the midpoint of the concentration-response curve. As usually defined, the AUC(0-t) is the area under the concentration-time curve up to a stated or last time point. High values mean high exposure, low ones low exposure. A word on the Cmax: it is the peak of the concentration-time curve. As usually defined, the Tmax is the time from dosing to the highest level. As usually defined, the half-life is the time needed for the level to fall by half in the phase considered. A lower half-life goes with rapid decline.

Regarding `Cn1c(=O)c(C(=O)NCC(=O)O)c(O)c2ccc(Oc3ccccc3)cc21` [Example 1, 2-(4-hydroxy-1-methyl-2-oxo-7-phenoxy-1,2-dihydroquinoline-3-carboxamido)acetic acid], the response in data set [1] was half-maximal at 5.35 µM (EC50). The molecule also had a F in data set [2] of 81.5%. Further, in data set [2] (iv, 1 mg/kg), the exposure AUC(0-t) turned out to be 9340 ng·h/mL, the highest concentration (Cmax) was determined as 8910 ng/mL, the Tmax turned out to be 4.98 min and the clearance came to 1.77 mL/min/kg. In addition, in data set [2] (iv, 1 mg/kg), the half-life is 467 min and the Vd was determined as 0.234 L/kg. Moreover, in data set [2] (po, 5 mg/kg), the AUC(0-t) was 38400 ng·h/mL, the highest level (Cmax) was 18400 ng/mL, the Tmax was 40 min and the half-life is 252 min.
In turn, `O=C(O)CNC(=O)c1c(O)c2ccc(Oc3ccccc3)cc2n(CC2CC2)c1=O` [Example 2, 2-(1-(cyclopropylmethyl)-4-hydroxy-2-oxo-7-phenoxy-1,2-dihydroquinoline-3-carboxamido)acetic acid] had an EC50 in data set [1] of 5 µM. Further, in data set [2], the F was determined as 100.4%. Besides, in data set [2] (iv, 1 mg/kg), the exposure AUC(0-t) is 20200 ng·h/mL, the Cmax was determined as 7190 ng/mL, the Tmax was found to be 13.3 min and the clearance stood at 0.833 mL/min/kg. Further, in data set [2] (iv, 1 mg/kg), the half-life is 224 min and the Vd was 0.159 L/kg. In data set [2] (po, 5 mg/kg), the AUC(0-t) was 101000 ng·h/mL, the Cmax was 13200 ng/mL, the time of peak concentration (Tmax) is 130 min and the half-life is 239 min.
For `Cn1c(=O)c(C(=O)NCC(=O)O)c(O)c2ccc(Oc3ccc(Cl)cc3)cc21` [Example 13, 2-(7-(4-chlorophenoxy)-4-hydroxy-1-methyl-2-oxo-1,2-dihydroquinoline-3-carboxamido)acetic acid], in data set [1], the midpoint of the response, the EC50, lay at 7.1 µM. In data set [2], the F amounted to 94.6%. Moreover, in data set [2] (iv, 1 mg/kg), the area under the curve AUC(0-t) is 13100 ng·h/mL, the Cmax is 8480 ng/mL, the Tmax came out at 4.98 min and the clearance stood at 1.32 mL/min/kg. In data set [2] (iv, 1 mg/kg), the half-life was 57.5 min and the Vd worked out at 0.107 L/kg. Further, in data set [2] (po, 5 mg/kg), the AUC(0-t) stood at 57000 ng·h/mL, the peak level (Cmax) was 12300 ng/mL, the Tmax came out at 70.2 min and the half-life was 254 min.
`Cn1c(=O)c(C(=O)NCC(=O)O)c(O)c2ccc(Oc3cc(F)ccc3F)cc21` [Example 19, 2-(7-(2,5-difluorophenoxy)-4-hydroxy-1-methyl-2-oxo-1,2-dihydroquinoline-3-carboxamido)acetic acid] returned an EC50 in data set [1] of 2.26 µM. Further, in data set [2], the F was determined as 98.7%. Also, in data set [2] (iv, 1 mg/kg), the AUC(0-t) turned out to be 8260 ng·h/mL, the highest level (Cmax) was 6080 ng/mL, the time to peak (Tmax) is 4.98 min and the clearance is 2.06 mL/min/kg. Further, in data set [2] (iv, 1 mg/kg), the half-life is 65.4 min and the Vd is 0.164 L/kg. In data set [2] (po, 5 mg/kg), the exposure AUC(0-t) is 41000 ng·h/mL, the maximum concentration (Cmax) is 9560 ng/mL, the Tmax came out at 30 min and the half-life is 84 min.
As to `Cn1c(=O)c(C(=O)NCC(=O)O)c(O)c2ccc(Oc3cc(Cl)ccc3F)cc21` [Example 22, 2-(7-(5-chloro-2-fluorophenoxy)-4-hydroxy-1-methyl-2-oxo-1,2-dihydroquinoline-3-carboxamido)acetic acid], a half-maximal response in data set [1] (EC50) required 4.18 µM. The same molecule displayed a F in data set [2] of 108.6%. Also, in data set [2] (iv, 1 mg/kg), the area under the curve AUC(0-t) turned out to be 10800 ng·h/mL, the Cmax stood at 10100 ng/mL, the time of peak concentration (Tmax) was 4.98 min and the clearance was determined as 1.56 mL/min/kg. Besides, in data set [2] (iv, 1 mg/kg), the half-life is 57.5 min and the Vd amounted to 0.146 L/kg. Also, in data set [2] (po, 5 mg/kg), the area under the curve AUC(0-t) was 58700 ng·h/mL, the highest level (Cmax) was 10700 ng/mL, the time of peak concentration (Tmax) came out at 50 min and the half-life was 167 min.
Turning to `Cn1c(=O)c(C(=O)NCC(=O)O)c(O)c2ccc(Oc3ccc(F)cc3Cl)cc21` [Example 28, 2-(7-(2-chloro-4-fluorophenoxy)-4-hydroxy-1-methyl-2-oxo-1,2-dihydroquinoline-3-carboxamido)acetic acid], the concentration giving a half-maximal response (EC50) in data set [1] is 1.51 µM. Further, the F in data set [2] came out at 107.8%. In data set [2] (iv, 1 mg/kg), the AUC(0-t) is 6200 ng·h/mL, the maximum concentration (Cmax) was 4170 ng/mL, the Tmax came to 4.98 min and the clearance was found to be 2.67 mL/min/kg. Besides, in data set [2] (iv, 1 mg/kg), the half-life was 59.4 min and the Vd was determined as 0.217 L/kg. Moreover, in data set [2] (po, 5 mg/kg), the AUC(0-t) stood at 33300 ng·h/mL, the concentration peaked (Cmax) at 11700 ng/mL, the Tmax stood at 55 min and the half-life is 106 min.
In data set [1], `COc1ccc(Oc2ccc3c(O)c(C(=O)NCC(=O)O)c(=O)n(C)c3c2)cc1` [Example 36, 2-(4-hydroxy-7-(4-methoxyphenoxy)-1-methyl-2-oxo-1,2-dihydroquinoline-3-carboxamido)acetic acid] registered an EC50 of 2.95 µM. This counts as single-digit micromolar.
As to `COc1cccc(Oc2ccc3c(O)c(C(=O)NCC(=O)O)c(=O)n(C)c3c2)c1` [Example 37, 2-(4-hydroxy-7-(3-methoxyphenoxy)-1-methyl-2-oxo-1,2-dihydroquinoline-3-carboxamido)acetic acid], the EC50 in data set [1] stood at 6.26 µM.
In data set [1], `COc1ccccc1Oc1ccc2c(O)c(C(=O)NCC(=O)O)c(=O)n(C)c2c1` [Example 38, 2-(4-hydroxy-7-(2-methoxyphenoxy)-1-methyl-2-oxo-1,2-dihydroquinoline-3-carboxamido)acetic acid] gave an EC50 of 8.85 µM.
Still for that read-out and setting: the same measure for `Cn1c(=O)c(C(=O)NCC(=O)O)c(O)c2cc(F)c(Oc3ccccc3)cc21` [Example 39, 2-(6-fluoro-4-hydroxy-1-methyl-2-oxo-7-phenoxy-1,2-dihydroquinoline-3-carboxamido)acetic acid]: 4.89 µM; for `Cn1c(=O)c(C(=O)NCC(=O)O)c(O)c2ccc(Oc3ccccc3OC(F)(F)F)cc21` [Example 40, 2-(4-hydroxy-1-methyl-2-oxo-7-(2-(trifluoromethoxy)phenoxy)-1,2-dihydroquinoline-3-carboxamido)acetic acid]: 4.06 µM; for `O=C(O)CNC(=O)c1c(O)c2ccc(Oc3ccccc3)cc2n(CCC2CC2)c1=O` [Example 42, 2-(1-(cyclopropylethyl)-4-hydroxy-2-oxo-7-phenoxy-1,2-dihydroquinoline-3-carboxamido)acetic acid]: 3.34 µM.
With `Cn1c(=O)c(C(=O)NCC(=O)O)c(O)c2ccc(Oc3ccncc3)cc21` [Example 43, 2-(4-hydroxy-1-methyl-2-oxo-7-(pyridin-4-yloxy)-1,2-dihydroquinoline-3-carboxamido)acetic acid], in data set [1], the EC50 worked out at 28.9 µM.
The same measure, in the same setting: under `Cn1c(=O)c(C(=O)NCC(=O)O)c(O)c2ccc(Oc3ccccc3F)cc21` [Example 45, 2-(7-(2-fluorophenoxy)-4-hydroxy-1-methyl-2-oxo-1,2-dihydroquinoline-3-carboxamido)acetic acid] stands 6.02 µM; under `Cn1c(=O)c(C(=O)NCC(=O)O)c(O)c2ccc(Oc3cccc(F)c3)cc21` [Example 46, 2-(7-(3-fluorophenoxy)-4-hydroxy-1-methyl-2-oxo-1,2-dihydroquinoline-3-carboxamido)acetic acid], 3.61 µM.
As to `Cn1c(=O)c(C(=O)NCC(=O)O)c(O)c2ccc(Oc3ccc(F)cc3)cc21` [Example 47, 2-(7-(4-fluorophenoxy)-4-hydroxy-1-methyl-2-oxo-1,2-dihydroquinoline-3-carboxamido)acetic acid], in data set [1], the EC50 was determined as 3.92 µM. The F in data set [2] came to 90.7%. In addition, in data set [2] (iv, 1 mg/kg), the area under the curve AUC(0-t) was found to be 10200 ng·h/mL, the highest level (Cmax) was 6400 ng/mL, the Tmax was determined as 4.98 min and the clearance worked out at 1.66 mL/min/kg. Further, in data set [2] (iv, 1 mg/kg), the half-life is 63.6 min and the Vd is 0.144 L/kg. Also, in data set [2] (po, 5 mg/kg), the AUC(0-t) was 46200 ng·h/mL, the Cmax was 11500 ng/mL, the Tmax came to 30 min and the half-life was 158 min.
Consider `Cn1c(=O)c(C(=O)NCC(=O)O)c(O)c2ccc(Oc3ccccc3Cl)cc21` [Example 48, 2-(7-(2-chlorophenoxy)-4-hydroxy-1-methyl-2-oxo-1,2-dihydroquinoline-3-carboxamido)acetic acid], for which, in data set [1], the EC50 was 6.6 µM.
